Tests used:
fructosylamine deglycase [1] = assay: Influence by inhibitors on the enzyme; assay type: biochemical, Candida guilliermondii 7087; settings: 2 mM inhibitor; 10 mM phosphate buffer pH 6.0; 37° C., 4 minutes
Method: The influence of a 2 mM inhibitor on the enzyme was as follows: […]

fructosylamine deglycase [2] = assay: Substrate specificity of the enzyme to amadori compounds (colorimetric determination of hydrogen peroxide formed); assay type: biochemical, Candida guilliermondii 7087
Method: 0.1 ml of 1 mM di-fructosyl-lysine (as dissolved in 0.05M phosphate buffer pH 7.0) is added to 0.4 ml of 0.05M phosphate buffer (pH 7.0) containing 0.3 mM 4-aminoantipyrine, 0.5 mM N-ethyl-N-(2-hydroxy-3-sulfopropyl)-m-toluidine (TOOS) and 2.0 U/ml peroxidase, and the temperature of the resulting system is equilibrated at 37° C. To this is added 0.06 ml of the enzyme solution having a suitable activity, whereupon the variation of the absorbance of the system is measured with a spectrophotometer (U-2000 Model, manufactured by Hitachi Ltd. ). From the calibration curve as formed from a standard solution containing a determined amount of hydrogen peroxide to indicate the relation between the variation of the absorbance and the amount of hydrogen peroxide, the amount of the hydrogen peroxide as formed in the test system is obtained. The amount of the enzyme of forming one micromole of hydrogen peroxide per one minute is defined to be one activity unit.
0.2 ml of 1 mM di-fructosyl-lysine (as dissolved in 0.05M phosphate buffer pH 7.0) is prepared, and the temperature of it is equilibrated at 37° C. To this is added 0.12 ml of the enzyme solution having a suitable activity and reacted for a suitable period of time at 37° C., and the reaction is stopped in a hot water bath of 100° C. To this is added 0.8 ml of 0.05M phosphate buffer (pH 7.0) containing 0.3 mM 4-aminoantipyrine, 0.5 mM TOOS and 2.0 U/ml peroxidase, whereupon the variation of the absorbance of the system is measured with a spectrophotometer (U-2000 Model, manufactured by Hitachi Ltd. ). From the calibration curve as formed from a standard solution containing a determined amount of hydrogen peroxide to indicate the relation between the variation of the absorbance and the amount of hydrogen peroxide, the amount of the hydrogen peroxide as formed in the test system is obtained. The amount of the enzyme of forming one micromole of hydrogen peroxide per one minute is defined to be one activity unit.
The enzyme catalyzes the reaction of decomposing amadori compounds of α-amino acids, β-amino acids, ε-amino acids, D-amino acids and amines to form a glucosone, hydrogen peroxide and the corresponding amino acid or amine. The enzyme not only decomposes amadori compounds of α-amino acids but also effectively acts on other amadori compounds having fructose as bonded to amino groups as positioned in other positions than the α-position of amino acids (for example, di-D-fructosyl-lysine, ε-D-fructosyl-L-lysine).
The concentration of the substrate as employed for the measurement was 2 mM, except for the use of 1 mM for di-D-fructosyl-lysine.
The data of the activity are relative values to the activity to D-fructosyl-glycine being 100.

Which “Inhibition of the enzyme” value (fructosylamine deglycase [1]) does the source give for `[Ni+2]` [Ni^2+] here?
The value was “strongly inhibited”.

For `O=C(CN1CCC[C@H]1C(=O)O)[C@@H](O)[C@H](O)[C@H](O)CO` [D-fructosyl-L-proline], which “Activity of the Enzyme (relative values to the activity to D-fructosyl-glycine being 100)” value (fructosylamine deglycase [2]; substrate concentration 2 mM) is on record?
Its value is 1348.

For `O=C(O)c1cc[c]([Hg][Cl])cc1` [p-chloromercuribenzoic acid], which “Inhibition of the enzyme” value (fructosylamine deglycase [1]) is on record?
The value was “strongly inhibited”.

How did the “Inhibition of the enzyme” value (fructosylamine deglycase [1]) turn out when `[Cu+2]` [Cu^2+] was run?
The value was “strongly inhibited”.

Which “Inhibition of the enzyme” value (fructosylamine deglycase [1]) does the source give for `[Zn+2]` [Zn^2+] here?
Its value is “strongly inhibited”.

With `[Mg+2]` [Mg^2+] as the compound, how does the “Inhibition of the enzyme” value (fructosylamine deglycase [1]) read?
Its value is “not inhibited”.

`[N-]=[N+]=[N-].[Na+]` [NAN3] was tested. Which “Inhibition of the enzyme” value (fructosylamine deglycase [1]) did it give?
The value was “not inhibited”.

Which “Activity of the Enzyme (relative values to the activity to D-fructosyl-glycine being 100)” value (fructosylamine deglycase [2]; substrate concentration 1 mM) does the source give for Di-D-fructosyl-lysine here?
The value was 3500.

`CNCC(=O)[C@@H](O)[C@H](O)[C@H](O)CO` [D-fructosyl-methylamine] was tested. Which “Activity of the Enzyme (relative values to the activity to D-fructosyl-glycine being 100)” value (fructosylamine deglycase [2]; substrate concentration 2 mM) did it give?
The value was 105.

`O=C(O)CCNCC(=O)[C@@H](O)[C@H](O)[C@H](O)CO` [D-fructosyl-β-alanine] was tested. Which “Activity of the Enzyme (relative values to the activity to D-fructosyl-glycine being 100)” value (fructosylamine deglycase [2]; substrate concentration 2 mM) did it give?
The value was 44.

Which “Activity of the Enzyme (relative values to the activity to D-fructosyl-glycine being 100)” value (fructosylamine deglycase [2]; substrate concentration 2 mM) does the source give for `C[C@@H](NCC(=O)[C@@H](O)[C@H](O)[C@H](O)CO)C(=O)O` [D-fructosyl-D-alanine] here?
Its value is 26.

How did the “Inhibition of the enzyme” value (fructosylamine deglycase [1]) turn out when `[Co+2]` [Co^2+] was run?
The value was “strongly inhibited”.

For D-fructosyl-polylysine, which “Activity of the Enzyme (relative values to the activity to D-fructosyl-glycine being 100)” value (fructosylamine deglycase [2]; substrate concentration 2 mM) is on record?
Its value is 34.

For `O=C(O)[C@H](Cc1ccccc1)NCC(=O)[C@@H](O)[C@H](O)[C@H](O)CO` [D-fructosyl-L-phenylalanine], which “Activity of the Enzyme (relative values to the activity to D-fructosyl-glycine being 100)” value (fructosylamine deglycase [2]; substrate concentration 2 mM) is on record?
Its value is 36.

For `N[C@@H](CCCCNCC(=O)[C@@H](O)[C@H](O)[C@H](O)CO)C(=O)O` [D-fructosyl-L-lysine], which “Activity of the Enzyme (relative values to the activity to D-fructosyl-glycine being 100)” value (fructosylamine deglycase [2]; substrate concentration 2 mM) is on record?
The value was 1386.

`O=C(O)CNCC(=O)[C@@H](O)[C@H](O)[C@H](O)CO` [D-fructosyl-glycine] was tested. Which “Activity of the Enzyme (relative values to the activity to D-fructosyl-glycine being 100)” value (fructosylamine deglycase [2]; substrate concentration 2 mM) did it give?
The value was 100.

For `CN(CC(=O)O)CC(=O)[C@@H](O)[C@H](O)[C@H](O)CO` [D-fructosyl-sarcosine], which “Activity of the Enzyme (relative values to the activity to D-fructosyl-glycine being 100)” value (fructosylamine deglycase [2]; substrate concentration 2 mM) is on record?
The value was 63.

`C[C@H](NCC(=O)[C@@H](O)[C@H](O)[C@H](O)CO)C(=O)O` [D-fructosyl-L-alanine] was tested. Which “Activity of the Enzyme (relative values to the activity to D-fructosyl-glycine being 100)” value (fructosylamine deglycase [2]; substrate concentration 2 mM) did it give?
The value was 251.
